In patent publication US20030186980A1, “Anthelmintic agents for preventing parasitic infections in humans and animals III” (priority 2000, published 2003):

Columns and labels:
[1] = system: Schistosoma mansoni cercariae; experiment: Activity against Schistosoma mansoni cercariae (survival/mobility observed with a stereomagnifier); set-up: key: no effect during the entire test period of 120 minutes; 1: weak effect (the cercariae have a strongly reduced mobility); 2: good effect (the cercariae are only slightly mobile and bent); 3: full effect (the cercariae are completely immobile); settings: 500 μl/l final concentration of active compound; PEG300/aquarium water; test period of 120 minutes; about 100 to 150 cercariae per batch
Experimental: [500 μl/l final concentration of the active compounds] Snails (Biomphalaria glabrata) were infected by incubating each of them with 8 miracidia in 10 ml of water overnight. About 6 to 9 weeks after the infection, cercariae were obtained by irradiating the snails, which had been kept in darkness, with light, followed by collection of the swarming cercariae within 2 hours.
Such an amount of cercariae-containing water (1 or 2 ml, see below) was added to the test batches that each batch contained about 100 to 150 cercariae.
5 μl of active compound were mixed thoroughly with 25 μl of PEG300. 9 ml of aquarium water was then added, and the batch was shaken vigorously. After (delayed) addition of 1 ml of cercariae suspension, survival of the cercariae was in each case observed immediately using a stereomagnifier.

[2] = system: cercariae of Schistosoma mansoni; settings: topical; Salafsky et al. 1998; cited from earlier work
[3] = system: cercariae of Schistosoma mansoni; settings: Fripp and Armstrong 1973; cited from earlier work
[4] = system: cercariae of Schistosoma mansoni; settings: topical, monkeys; Bruce et al. 1992; cited from earlier work

In the case of CCC(C)N(C)C(=O)N1CC(C)OC(C)C1 (stereo not shown), the “activity rating against Schistosoma mansoni cercariae” value [1] was 1.
For CCN(CC)C(=O)c1cccc(C)c1 [N,N-Diethyl-m-toluamide (DEET), N,N-Diethyl-m-toluamide], the “action against cercariae of Schistosoma mansoni” value [2] is listed as “acts against cercariae”.
For Oc1c(Cl)cc(Cl)c(Cl)c1Cc1c(O)c(Cl)cc(Cl)c1Cl [hexachlorophene], the “effect on cercariae of Schistosoma mansoni” value [3] is given as “lethal effect”.
For O=C(Nc1ccc([N+](=O)[O-])cc1Cl)c1cc(Cl)ccc1O [Niclosamide], the “action against the penetration of cercariae” value [4] is listed as “acts against the penetration of cercariae”.
